Experimental data from US10247722B2, “Use of compounds inhibiting apelin / APJ / GP130 signaling for treating cancer” (Centre National de la Recherche Scientifique (CNRS), priority 2014, dated 2019).
“Also recorded” adds a separate entry of the source. Positions of bridges follow the written chain, without caps; N, C: chain ends. No end group written: not given here.

Assays:
patient-derived GSCs [1] = assay: Secondary neurosphere/tumoursphere formation, Sox2/Nestin expression and trypan blue viability of GSCs; type: cell-based, human; conditions: mitogen-free medium plus APJ agonist; ML233 1 mmol·l^1, 4 days (FIG. 13)
Akt/mTor pathway = assay: Western blot of Akt/mTor pathway activation (pAkt, pS6) in GSCs; type: cell-based, human
Experimental: FIG. 4. […] Scale bar: 40 μm. Data represent mean+sem on n=3 experiments.
(§1) FIG. 9. […] GSCs were pre-treated with APJ antagonist (MM54, 2 μmol·l^1) 45 min prior EC-CM or Apelin (Apin, 1 μmol·l^−1, 7 min) and protein lysates were analysed by western-blots with the indicated antibodies. Controls include GSC grown in complete (NS) and mitogen-free media (MF). b. STAT3 reporter activity was measured in mock, APJ, Gp130 and APJ+Gp130-transfected HEK-293T and exposed for 6 h to MF and Apin, together with either DMSO or MM54. c. GSCs were exposed to NS, EC-CM and Apin in the presence of DMSO or MM54. Tumoursphere formation per field of view (TS/FOV) was also quantified. d. Nude mice were xenografted with GSCs and bi-weekly intraperitoneal administration of vehicle (PBS) or APJ antagonist (MM54, 20 μmol·l^−1) started at week 4 (arrow). Tumour volume was measured weekly for 7 weeks. e. Frozen sections from GSC-xenografted tumours treated either with vehicle or MM54 were stained for blood vessels (PECAM), together with either Ki67 (proliferation marker or Nestin and nuclei. Percentage of dead cells was estimated by TUNEL. Quantification of both staining is shown. Data represent mean+sem on n=3 experiments. Two-way ANOVA: *P<0.05; **P<0.01.

STAT3 [2] = assay: STAT3 luciferase reporter assay in HEK-293T co-expressing APJ and Gp130; type: cell-based, human; conditions: HEK-293T co-expressing APJ and Gp130, Apelin 6 h
Experimental: FIG. 9. Pharmacological inhibition of APJ impairs tumour growth. a. GSCs were pre-treated with APJ antagonist (MM54, 2 μmol·l^1) 45 min prior EC-CM or Apelin (Apin, 1 μmol·l^−1, 7 min) and protein lysates were analysed by western-blots with the indicated antibodies. Controls include GSC grown in complete (NS) and mitogen-free media (MF). b. STAT3 reporter activity was measured in mock, APJ, Gp130 and APJ+Gp130-transfected HEK-293T and exposed for 6 h to MF and Apin, together with either DMSO or MM54. c. GSCs were exposed to NS, EC-CM and Apin in the presence of DMSO or MM54. Tumoursphere formation per field of view (TS/FOV) was also quantified. d. […] Tumour volume was measured weekly for 7 weeks. e. Frozen sections from GSC-xenografted tumours treated either with vehicle or MM54 were stained for blood vessels (PECAM), together with either Ki67 (proliferation marker or Nestin and nuclei. Percentage of dead cells was estimated by TUNEL. Quantification of both staining is shown. Data represent mean+sem on n=3 experiments. Two-way ANOVA: *P<0.05; **P<0.01.
HEK-293T cells were co-transfected with HA-APJ, GP130, STAT3 Luciferase Reporter Vector (Affymetrix) and Renilla (Promega). […] Then, cells were lysed and STAT3 luciferase activity was measured using the Dual-Luciferase Reporter Assay (Promega). […]

patient-derived GSCs [3] = assay: Secondary neurosphere/tumoursphere formation, Sox2/Nestin expression and trypan blue viability of GSCs; type: cell-based, human
Experimental: as §1
FIG. 11. […] Apelin secretion was measured by EIA in positive templates (C+), mitogen-free media (MF), human brain endothelial cell (EC) and GSC conditioned media (CM). RT-PCR for Apelin and Actin is also shown for EC and GSC. b. Confocal analysis of Nestin (green), Sox2 (red) and nuclei (DAPI, blue) in GSC grown in complete media (NS), in MF, in EC-CM or MF containing only recombinant Apelin (Apin, 1 μmol·l^−1). Scale bar: 40 um. c-d. GSCs #1-16 were cultured in MF or Apin. Quantification of tumourspheres per field of view (TS/FOV) (c) and trypan blue exclusion quantification (Viable cells %) (d) was performed. e. EC received non-silencing RNA (siC) or Apin targeting siRNA (siApin). Apin extinction was checked by RT-PCR and enzyme immunoassay. f. GSCs were cultured with siC and siApin EC-CM, as prepared in (e). Confocal analysis was performed on Nestin (green), Sox2 (red) and DAPI (blue) co-staining. Scale bar: 40 μm. g-h. siC or siApin EC-CM treated GSCs were processed as in (c, d). i-k. GSCs were cultured with NS, MF, siC EC-CM and siApinEC-CM alone or plus Apin. Phase pictures are shown (i) Scale bar: 25 μm, TS/FOV and viable cells were also analysed (j, k). Data represent mean+sem on n=3 experiments. T-test: *P<0.05; **P<0.01; ***P<0.001.
GSCs were dissociated by up-and-down pipetting and cultured in a 48-well plate format. […] NS counts were blindly performed on five random fields of view (fov) and the mean of neurosphere/fov was calculated from 3 independent experiments. Statistical analyses were performed using 2-way Student's test (Excel Microsoft Office).

[4] = test system: human GSCs implanted into immunocompromised mouse flanks; assay: Subcutaneous GSC xenograft in nude mice, tumour growth and histology; type: in vivo
Experimental: FIG. 9. Pharmacological inhibition of APJ impairs tumour growth. a. GSCs were pre-treated with APJ antagonist (MM54, 2 μmol·l^1) 45 min prior EC-CM or Apelin (Apin, 1 μmol·l^−1, 7 min) and protein lysates were analysed by western-blots with the indicated antibodies. Controls include GSC grown in complete (NS) and mitogen-free media (MF). b. STAT3 reporter activity was measured in mock, APJ, Gp130 and APJ+Gp130-transfected HEK-293T and exposed for 6 h to MF and Apin, together with either DMSO or MM54. c. GSCs were exposed to NS, EC-CM and Apin in the presence of DMSO or MM54. Tumoursphere formation per field of view (TS/FOV) was also quantified. d. Nude mice were xenografted with GSCs and bi-weekly intraperitoneal administration of vehicle (PBS) or APJ antagonist (MM54, 20 μmol·l^−1) started at week 4 (arrow). Tumour volume was measured weekly for 7 weeks. e. Frozen sections from GSC-xenografted tumours treated either with vehicle or MM54 were stained for blood vessels (PECAM), together with either Ki67 (proliferation marker or Nestin and nuclei. Percentage of dead cells was estimated by TUNEL. Quantification of both staining is shown. Data represent mean+sem on n=3 experiments. Two-way ANOVA: *P<0.05; **P<0.01.
All animal studies were carried out according to French Ministry approved protocols (agreement number #00754.02), in compliance with the European Convention for the Protection of Vertebrate Animals used for Experimental and other Scientific Purposes (ETS 123). Six weeks old females BALB/c nude mice (Janvier) were subcutaneously injected with 1*10^6 cells in 100 μl 1:1 PBS and growth factors-free matrigel (Corning). For tumour initiation (FIG. 9), mice were examined weekly in the search for tumours and sacrificed 7 weeks after implantation. For pharmacological studies (FIG. 6), mice were treated twice per week with MNI54 or vehicle (DMSO) diluted in PBS (100 μl) (intraperitoneal injection for 7 weeks), once tumours were detected (4 weeks post-implantation).
Upon sacrifice, tumours were extracted, embedded in OCT (Tissue Tek) in biomoulds, frozen by immersion in dry ice-chilled isopentane for 1 min, and stored at −80° C. for further analysis.
For immunostaining, embedded OCT-tumours were cut in 7 μm sections using a CM350S Leica cryostat (Histology platform, Institut Cochin, Paris). […]
A minimum of 3 tumour sections per condition was used, with at least 5 different fields of view (fov) each. For blood vessel surface analysis, PECAM pixel intensity was calculated in each fov and an average+sem of the total fov was represented. Cell proliferation was assessed through the percentage of Ki67-positive cells normalized to the total cell number of cells in DAPI. Nestin positive cells were counted per fov.

[5] = test system: mice intracranially implanted with GSCs; assay: Orthotopic (intracranial) GSC #9 implantation in nude mice; type: in vivo
Experimental: FIG. 15. Anti-tumor effect of APJ inhibition. Nude mice were implanted with GSC #9 orthotopically (10^5 cells) and treated tri-weekly with intraperitoneal injection of vehicle (PBS) or APJ antagonist (MM54, 20 μmol·l^−, 4 mg/kg) starting at day 16 (arrow). Appearance of neurological symptoms (a) and weight at sacrifice (b) were monitored. Kaplan-Meier survival curve of GSC #9-bearing mice is shown (c). Data represent mean+sem of n=3 experiments. Two-way ANOVA: *P<0.05; **P<0.01.

[6] = Toxicity observation in MM54-treated mice (body weight, heart/body weight ratio, heart anatomy); type: in vivo; conditions: ectopic tumour-bearing mice, bi-weekly over 7 weeks; sham-operated female nude mice
Experimental: FIG. 16. […] Gain weight was measured in ectopic tumour bearing mice that received bi-weekly treatment over 7 weeks. b-d. Female nude mice underwent intracranial implantation of PBS (sham surgery) and then received DMSO and MM54 17 days after PBS implantation. Body weight was monitored long the experiment (a). Heart/body weight ratios were calculated at the day of sacrifice (c). General anatomy of hearts from DMSO and MM54-treated mice using the Masson Trichrome staining (d).

STAT3 [7] = conditions: recombinant Apelin 1 μM
Experimental: A. Western-blot analysis for pY-STAT3, pS-STAT3 and Total STAT3 in GSC#1 treated with complete media (NS34), deprived medium (SF), endothelial cell-conditioned media (EC-CM), or SF supplemented with Apelin (1 μM), for the indicated times. B. GSC#1 received non-silencing siRNA (sic) or siRNA targeting APJ. GSC#1 were treated with EC-CM and analyzed by western-blots using the indicated antibodies (upper panel). Alternatively, GSC#1 received EC-CM prepared from non-silencing shRNA (shC) or shRNA targeting Apelin (lower panel). […] GSC#1 received non-silencing siRNA (siC) or siRNA targeting GP130, were stimulated with EC-CM three days later, and protein lysates were analyzed by western-blots, using the indicated antibodies. D. GSC#1 were pre-treated with GP130-blocking antibody 45 min prior EC-CM or Apelin stimulation and protein lysates were analyzed by western-blots. E. Neurosphere assay was conducted in GSC#1 treated with siRNA as in (C) or with GP130-blocking antibody as in (D).
Proteins were collected in TNT buffer (10 mM Tris-HCl pH 7.5, 150 mM NaCl, 1% Triton X100, 2 mM EDTA) plus protease inhibitors (Sigma), 200 mM NaF and 0.1 mM Na3VO4. Equal amounts of proteins (microBCA kit, Pierce) were separated with 4-12% Nupage gels (Invitrogen) and transferred onto PVDF membranes (Thermo Fisher Scientific). […]

[8] = intracranial GSC #9, intraperitoneal MM54 thrice a week (4 mg/kg) from day 16

Apelin 13
GSC survival (patient-derived GSCs [1]): promote GSC survival

CC1=CC(=O)C(C2CCCCC2)=C/C1=N\OS(=O)(=O)c1ccccc1 [ML233]
GSC survival (patient-derived GSCs [1]): promote GSC survival; also recorded: promotes GSC survival through APJ/GP130

cyclo(1-6)CRPRLC-KH-cyclo(9-14)CRPRLC (CRPRLCKHCRPRLC; bridge 1-6, 9-14) [MM54, APJ antagonist (Macaluso N J et al., 2011), supplied by Dr. Robert Glenn]
Inhibition of EC-CM- and Apelin-induced Akt/mTor activation in GSCs (Akt/mTor pathway; pre-treatment 45 min prior EC-CM or Apelin (1 μmol·l^−1, 7 min), MM54 2 μmol·l^−1): blocks; also recorded: alleviated | Inhibition of Apelin-mediated STAT3 activation (STAT3 reporter activity) (STAT3 [2]): reduced | Inhibition of Apelin-mediated STAT3 activation (STAT3 reporter activity) (STAT3 [2]; listed as pharmacological antagonist of APJ): blocked | Neurosphere number and size, with Sox2/Nestin (patient-derived GSCs [3]; GSCs cultured with EC-CM): dramatically decreased | Endothelial Apelin-dependent GSC self-renewal and survival (tumoursphere formation) (patient-derived GSCs [3]; GSCs exposed to EC-CM or Apelin in presence of DMSO or MM54): blocks; also recorded: impaired | GSC number in residual tumours, as scored with Nestin ([4]; bi-weekly intraperitoneal MM54): decreased | Overall cell proliferation (Ki67) and viability (TUNEL) in residual tumours ([4]; bi-weekly intraperitoneal MM54): decreased | Tumour vascularisation (PECAM) ([4]; bi-weekly intraperitoneal MM54): reduction | Tumour growth (tumour volume) ([4]; bi-weekly intraperitoneal MM54 (20 μmol·l^−1) from week 4, 7 weeks): capable of in vivo inhibiting tumor growth once initiated; also recorded: restrain tumor growth and expansion; also recorded: strongly hindered | Neurological symptoms ([5]; intracranial GSC #9, intraperitoneal MM54 thrice a week (20 μmol·l^−, 4 mg/kg) from day 16): significantly abolish | Loss weight associated with tumour progression [5, 8]: rescue | Overall survival of tumour-bearing mice (Kaplan-Meier) [5, 8]: dramatically increased | Tumour size ([5]; intracranial GSCs, intraperitoneal MM54 thrice a week): reduced | Toxic effects of treatment [6]: does not exert any obvious toxic effects

Apelin
Activation of the Akt/mTor pathway in GSCs (Akt, S6 phosphorylation) (Akt/mTor pathway; recombinant Apelin 1 μM, no other exogenous mitogen): able to activate this pathway in a similar extend than EC-CM; also recorded: triggered the activation of the mTor signalling cascade | EC-CM-sustained self-renewal and viability of GSCs (patient-derived GSCs [3]; exogenous Apelin added into Apelin-depleted endothelial cell-derived media): restored | GSC self-renewal (secondary neurosphere formation and Sox2/Nestin expression) (patient-derived GSCs [3]; recombinant Apelin 1 μM in mitogen-free media, panel of 16 patient-derived GSCs): sufficient to support self-renewal; also recorded: maintained | Mitogen deprivation-induced cell death (patient-derived GSCs [3]; recombinant Apelin in mitogen-free media, trypan blue exclusion): hindered | Activation of STAT3 signaling in GSCs (STAT3 [7]): able to activate this signaling pathway | GSC survival (patient-derived GSCs [1]): has an effect on GSCs survival

Apelin 36: 36 amino acid peptide corresponding to the sequence 42-77 of the Apelin proprotein; APJ agonist (LVQPRGSRNGPGPWQGGRRKFRRQRPRLSHKGPMPF; homo sapiens; Apelin 36 aa - homo sapiens)
GSC survival (patient-derived GSCs [1]): promote GSC survival
